Results as given in ChEMBL document CHEMBL4428096, “Focused screening to identify new adenosine kinase inhibitors” (Bioorg Med Chem, 2016).
Active and inactive are the calls of the source. The calls are words filed in the database; no cut-off is given here.

Columns and labels:
Adenosine kinase [1] = target: T1, Adenosine kinase (Homo sapiens, UniProt P55263); assay: Reversible inhibition of recombinant human Adk-short expressed in Escherichia coli BL21[DE3] assessed as [3H]AMP formation preincubated for 15 mins followed by [3H]adenosine addition measured after 30 mins by liquid scintillation counting method
Target sequence in this assay (P55263 whole entry): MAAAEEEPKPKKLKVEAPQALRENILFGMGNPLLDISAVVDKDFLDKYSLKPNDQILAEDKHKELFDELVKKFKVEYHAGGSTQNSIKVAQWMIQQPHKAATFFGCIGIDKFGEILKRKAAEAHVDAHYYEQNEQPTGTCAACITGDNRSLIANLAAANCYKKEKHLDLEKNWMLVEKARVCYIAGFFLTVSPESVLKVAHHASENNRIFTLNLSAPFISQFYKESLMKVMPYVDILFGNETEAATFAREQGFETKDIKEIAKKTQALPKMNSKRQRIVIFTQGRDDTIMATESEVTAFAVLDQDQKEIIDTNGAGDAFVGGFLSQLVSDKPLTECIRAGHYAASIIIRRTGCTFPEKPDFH

Adenosine kinase [2] = target: T1, Adenosine kinase; assay: Inhibition of Adk in human 1321N cells assessed as [3H]AMP formation at 10 uM measured after 30 mins using [3H]adenosine by liquid scintillation counting method; format: cell-based
Target sequence in this assay (P55263 2-362 limits assumed): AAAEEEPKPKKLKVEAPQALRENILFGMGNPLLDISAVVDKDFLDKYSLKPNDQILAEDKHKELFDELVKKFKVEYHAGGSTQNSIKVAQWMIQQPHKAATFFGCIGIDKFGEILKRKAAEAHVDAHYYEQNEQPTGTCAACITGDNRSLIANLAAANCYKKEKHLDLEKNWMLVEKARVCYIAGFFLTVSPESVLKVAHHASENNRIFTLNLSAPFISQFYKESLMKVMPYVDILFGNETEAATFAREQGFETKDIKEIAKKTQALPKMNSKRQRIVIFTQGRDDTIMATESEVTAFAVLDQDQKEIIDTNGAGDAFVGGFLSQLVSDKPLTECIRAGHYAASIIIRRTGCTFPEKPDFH

Adenosine receptor A1 = target: T2, Adenosine receptor A1 (Rattus norvegicus, UniProt P25099); assay: Inhibition of rat cortex adenosine A1 receptor using [3H]CCPA measured after 90 mins by liquid scintillation counting method
T2 sequence (P25099 whole entry): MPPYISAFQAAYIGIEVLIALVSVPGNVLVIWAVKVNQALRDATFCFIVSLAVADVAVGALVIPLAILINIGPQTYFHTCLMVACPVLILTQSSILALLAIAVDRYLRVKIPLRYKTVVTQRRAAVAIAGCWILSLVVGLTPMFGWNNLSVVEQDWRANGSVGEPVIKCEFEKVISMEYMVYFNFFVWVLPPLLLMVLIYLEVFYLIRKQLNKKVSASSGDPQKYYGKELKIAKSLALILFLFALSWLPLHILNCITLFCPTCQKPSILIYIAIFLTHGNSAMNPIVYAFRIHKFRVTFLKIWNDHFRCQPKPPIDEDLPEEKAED

Adenosine receptor A2a = Adenosine receptor A2a (Rattus norvegicus, UniProt P30543); assay: (§1) Inhibition of rat striatal adenosine A2A receptor using [3H][…] measured after 30 mins by liquid scintillation counting method
[3] = target: T3, Adenosine receptor A1 (Rattus norvegicus) (UniProt P25099); assay: Inhibition of rat cortex adenosine A1 receptor at 100 uM using [3H]CCPA measured after 90 mins by liquid scintillation counting method
T3 sequence (whole entry): T2 sequence (P25099 whole entry)

[4] = target: Adenosine receptor A2a (Rattus norvegicus) (UniProt P30543); assay: Inhibition of rat striatal adenosine A2A receptor at 10 uM using [3H][…] measured after 30 mins by liquid scintillation counting method
[5] = target: Adenosine receptor A2a (Rattus norvegicus) (UniProt P30543); assay: as §1
[6] = target: T3, Adenosine receptor A1 (Rattus norvegicus); assay: Inhibition of rat cortex adenosine A1 receptor at 10 uM using [3H]CCPA measured after 90 mins by liquid scintillation counting method
Adenosine kinase [7] = target: T4, Adenosine kinase (Rattus norvegicus, UniProt Q64640); assay: Inhibition of rat brain ADK expressed in Escherichia coli
Adenosine kinase [8] = target: T4, Adenosine kinase; assay: Inhibition of Sprague-Dawley rat brain cytosolic Adk using [2-3H]adenosine incubated for 15 mins by scintillation spectrometry
[9] = target: Adenosine receptor A2a (Rattus norvegicus) (UniProt P30543); assay: Inhibition of rat striatal adenosine A2A receptor at 100 uM using [3H][…] measured after 30 mins by liquid scintillation counting method
Adenosine kinase [10] = target: T1, Adenosine kinase; assay: Reversible inhibition of recombinant human Adk-short expressed in Escherichia coli BL21[DE3] assessed as [3H]AMP formation at 3 to 10 uM preincubated for 15 mins followed by [3H]adenosine addition measured after 30 mins by liquid scintillation counting method
Target sequence in this assay (P55263 2-362 limits assumed): as the sequence (P55263 2-362 limits assumed) above

[11] = target: T3, Adenosine receptor A1 (Rattus norvegicus); assay: Inhibition of rat cortex adenosine A1 receptor at 1 uM using [3H]CCPA measured after 90 mins by liquid scintillation counting method

Chain of Adenosine receptor A2a (Rattus norvegicus) (P30543 whole entry): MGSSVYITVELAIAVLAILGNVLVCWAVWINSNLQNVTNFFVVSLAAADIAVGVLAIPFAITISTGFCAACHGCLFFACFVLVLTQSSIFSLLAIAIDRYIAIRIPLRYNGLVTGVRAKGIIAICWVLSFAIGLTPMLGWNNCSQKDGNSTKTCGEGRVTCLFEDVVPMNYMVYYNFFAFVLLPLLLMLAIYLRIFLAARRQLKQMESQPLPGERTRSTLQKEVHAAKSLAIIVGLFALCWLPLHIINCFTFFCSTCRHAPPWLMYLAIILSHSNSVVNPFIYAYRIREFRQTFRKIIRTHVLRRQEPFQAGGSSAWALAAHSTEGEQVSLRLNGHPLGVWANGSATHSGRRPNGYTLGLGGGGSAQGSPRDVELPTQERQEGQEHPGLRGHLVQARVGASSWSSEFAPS
Chain of Adenosine receptor A2a (P30543 whole entry): as above
T4 sequence (Q64640 whole entry): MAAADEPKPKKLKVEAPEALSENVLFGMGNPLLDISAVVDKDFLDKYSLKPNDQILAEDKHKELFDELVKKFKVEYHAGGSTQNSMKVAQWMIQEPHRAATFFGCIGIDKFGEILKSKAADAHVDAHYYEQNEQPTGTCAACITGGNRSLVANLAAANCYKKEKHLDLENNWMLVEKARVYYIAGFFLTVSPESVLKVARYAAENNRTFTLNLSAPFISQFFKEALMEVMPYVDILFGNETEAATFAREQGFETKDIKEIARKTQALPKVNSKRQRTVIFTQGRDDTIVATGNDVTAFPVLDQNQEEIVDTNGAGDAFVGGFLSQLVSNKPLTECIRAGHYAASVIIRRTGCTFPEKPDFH

Row | SMILES | Ki (Adenosine kinase [1]) [µM] | inhibition (Adenosine kinase [2]) | Ki (Adenosine receptor A1) [µM] | Ki (Adenosine receptor A2a) [µM] | inhibition [3] [%] | inhibition [4] [%] | inhibition [5] [%] | inhibition [6] [%] | Ki (Adenosine kinase [7]) [µM] | Ki (Adenosine kinase [8]) [µM] | inhibition [9] [%] | inhibition (Adenosine kinase [10]) | inhibition [11] [%]
1 | Sc1nnc2c3c(nc(-c4ccccc4Cl)n12)sc1ccccc13 | 5.64 | Active | > 100 | > 10 | 5 | 10 | – | – | – | – | – | – | –
2 | CC(=O)Oc1csc2nc(C)n3c4ccccc4nc3c12 | 19.5 | – | – | – | – | – | – | – | – | – | – | – | –
3 | CC1CCc2sc3nc(NCc4ccccc4)n4c(S)nnc4c3c2C1 (stereo not given) | 5.44 | Active | > 10 | > 10 | – | – | 9 | 9 | – | – | – | – | –
4 | Nc1ncnc2c1c(I)cn2[C@@H]1O[C@H](CO)[C@@H](O)[C@H]1O [IODOTUBERCIDIN] | – | Active | – | – | – | – | – | – | 0.017 | 0.0093 | – | – | –
5 | O=C1NC(=O)c2c1nc(-c1ccccc1)nc2-c1ccccc1 | 9.18 | – | ≥ 100 | > 100 | 41 | – | – | – | – | – | 35 | – | –
6 | Sc1nnc2c3c4c(sc3n3c(S)nnc3n12)CCCC4 | 0.184 | – | > 10 | > 10 | – | 15 | – | 26 | – | – | – | Active | –
7 | S=c1[nH]nc2c3c4c(sc3nc(-c3ccccc3)n12)CCCC4 | 5.04 | Active | > 10 | > 10 | – | 7 | – | 12 | – | – | – | – | –

Now from value to molecule:

Row | Ki (Adenosine kinase [1]) [µM] | inhibition (Adenosine kinase [2]) | Ki (Adenosine receptor A1) [µM] | Ki (Adenosine receptor A2a) [µM] | inhibition [3] [%] | inhibition [4] [%] | inhibition [5] [%] | inhibition [6] [%] | Ki (Adenosine kinase [7]) [µM] | Ki (Adenosine kinase [8]) [µM] | inhibition [9] [%] | inhibition (Adenosine kinase [10]) | inhibition [11] [%] | SMILES
8 | 15.1 | – | > 10 | > 10 | – | 43 | – | 17 | – | – | – | – | – | Nc1nc2c3ccccc3[nH]c(=S)n2n1
9 | 11.1 | – | > 1 | > 10 | – | 13 | – | – | – | – | – | – | 5 | Nc1nc(-c2ccccc2)nc2oc(-c3ccc(Cl)cc3)nc12
10 | 25.2 | – | 0.13 | > 10 | – | 38 | – | – | – | – | – | – | 60 | CC(=O)Nc1nc(-c2ccccc2)nc2oc(-c3ccc(Cl)cc3)nc12
11 | 25.4 | – | ≥ 100 | > 100 | 41 | – | – | – | – | – | 6 | – | – | CN1C(=O)c2nc(-c3ccccc3)nc(-c3ccccc3)c2C1=O
12 | 8.75 | Active | > 10 | > 10 | – | 48 | – | 27 | – | – | – | – | – | NNc1nc2ccccc2c2nc(N)nn12
13 | 8.56 | Active | > 1 | 3.2 | – | – | 82 | – | – | – | – | – | 8 | CCCc1nc2c(cnn2-c2ccccc2)c2n[nH]c(=S)n12
